Measurements reported in PubChem BioAssay AID1963963 (Molecular Pharmacology Branch, DTP, NCI, 2024).

Tested on: 958667-338-R-J2-PDC tumor spheroids viability
Assay: Anticancer human tumor 958667-338-R-J2-PDC patient-derived colon adenocarcinoma cell line growth inhibition [PI3K]
Settings: spheroids with HUVEC and MSC; for IC50: curve of first compound; for viability, T/C: stronger effect = lower value
Source text: Combinatorial screen of targeted agents with the PI3K inhibitors inavolisib, alpelisib, duvelisib, and copanlisib in multi-cell type tumor spheroids
A high-throughput screen of multi-cell type tumor spheroids was designed to identify active combinations of targeted small molecules and PI3K pathway inhibitors. Complex spheroids include a stromal component modeled by human endothelial cells (HUVEC) and fibroblasts modeled by human mesenchymal stem cells (MSCs). The concentration ranges selected for each drug and investigational agent were based upon clinically achievable concentrations if the clinical Cmax of the agent was known.
Compounds. The drugs and investigational agents: inavolisib (NSC800729), alpelisib (NSC765974), duvelisib (NSC772469), copanlisib (NSC816437), ipatasertib (NSC767898), afuresertib (NSC778305), talazoparib (NSC767125), sapanisertib (NSC764658), selumetinib (NSC741078), tovorafenib (DAY101, NSC766906), vemurafenib (NSC761431), ravoxertinib (NSC781343), sotorasib (NSC818433), MRTX1133 (NSC 836407), abemaciclib (NSC 768073), palbociclib (NSC758247), venetoclax (NSC 766270), SY5609 (NSC837396), enzalutamide (NSC755605), and darolutamide (NSC825331), were obtained from the National Cancer Institute (NCI) Developmental Therapeutics Program Chemical Repository. The FDA-approved anticancer drug set is available from the NCI Developmental Therapeutics Program. […] The stock solutions were prepared in dimethyl sulfoxide (DMSO, Sigma-Aldrich, St. Louis, MO, cat. D2650) at 800-fold the tested concentration and stored at -70 degrees C prior to their use. All drugs and investigational agents were tested over a range starting from a high concentration at or near the clinical Cmax and decreasing in half-log increments. If the clinical Cmax for an agent had not been determined, the highest concentration tested was 10 microM.
Cell Culture. All cells were maintained in an incubator at 37 degrees C and 5% CO2 with 95% humidity. The PDC lines were cultured according to standard operating procedures established by the NCI PDMR (https://pdmr.cancer.gov/sops/default.htm). All PDCs were thawed and cultured in Matrigel-coated flasks prepared with a working solution of 1X Ham's F-12 nutrient mix, without supplementation (Invitrogen, Waltham, MA, cat. 11765054), 100 U/mL penicillin-streptomycin (Invitrogen, cat. 15140122), and 2.5% Matrigel (Corning Inc., Corning, NY, cat. 354248) for the first three passages. The 354836-022-R-J1-PDC, 475296-252-R-J1-PDC, and 997726-040-R-J2-PDC lines were cultured in 6A media, which includes advanced DMEM/F-12 (Thermo Fisher Scientific, cat. 12634028), 10 mM HEPES (Thermo Fisher Scientific, cat. 15630080), 1X GlutaMAX supplement (Thermo Fisher Scientific, cat. 35050061), 0.1 mg/mL primocin (InvivoGen, San Diego, CA, cat. ant-pm-2), 10% defined fetal bovine serum, heat inactivated (HyClone Laboratories Inc., Logan, UT, cat. SH30070.03HI), 50% L-WRN conditioned media (ATCC, cat. CRL-3276), 1.25 mM N-Acetyl-L-cysteine (Sigma-Aldrich, cat. A9165), 10 mM nicotinamide (Sigma-Aldrich, cat. N0636), 1X B-27 supplement (Thermo Fisher Scientific, cat. 17504044), 1X N-2 supplement (Thermo Fisher Scientific, cat. 17502048), and 10 microM Y-27632 dihydrochloride (Tocris Bioscience, Bristol, United Kingdom, cat. 1254). The 624824-186-R-J2-PDC line was cultured in 6C/Colon 1B media, which includes all 6A media components plus 50 ng/mL human EGF recombinant protein (Thermo Fisher Scientific, cat. PHG0311). […]
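Also: spheroids exposed to compounds for seven days before readout.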

Structure (SMILES): Cn1ncnc1[C@H]1c2n[nH]c(=O)c3cc(F)cc(c23)N[C@@H]1c1ccc(F)cc1 + CC(Nc1ccc2c(c1)OCCn1cc(N3C(=O)OCC3C(F)F)nc1-2)C(N)=O
- IC50 (second compound 0.00316 µM): > 100 nM
- IC50 (second compound 0.01 µM): > 100 nM
- IC50 (second compound 0.0316 µM): > 100 nM
- IC50 (second compound 0.1 µM): > 100 nM
- IC50 (second compound 0.316 µM): > 100 nM
- IC50 (second compound 1 µM): > 100 nM
- viability, T/C (second compound 0.00316 µM, first compound 0.000316 µM): 111%
- viability, T/C (second compound 0.00316 µM, first compound 0.001 µM): 107%
- viability, T/C (second compound 0.00316 µM, first compound 0.00316 µM): 105%
- viability, T/C (second compound 0.00316 µM, first compound 0.01 µM): 101%
- viability, T/C (second compound 0.00316 µM, first compound 0.0316 µM): 112%
- viability, T/C (second compound 0.00316 µM, first compound 0.1 µM): 95.9%
- viability, T/C (second compound 0.01 µM, first compound 0.000316 µM): 93.8%
- viability, T/C (second compound 0.01 µM, first compound 0.001 µM): 87.4%
- viability, T/C (second compound 0.01 µM, first compound 0.00316 µM): 88.5%
- viability, T/C (second compound 0.01 µM, first compound 0.01 µM): 117%
- viability, T/C (second compound 0.01 µM, first compound 0.0316 µM): 85.7%
- viability, T/C (second compound 0.01 µM, first compound 0.1 µM): 114%
- viability, T/C (second compound 0.0316 µM, first compound 0.000316 µM): 82.8%
- viability, T/C (second compound 0.0316 µM, first compound 0.001 µM): 95.9%
- viability, T/C (second compound 0.0316 µM, first compound 0.00316 µM): 77.7%
- viability, T/C (second compound 0.0316 µM, first compound 0.01 µM): 89.3%
- viability, T/C (second compound 0.0316 µM, first compound 0.0316 µM): 95.2%
- viability, T/C (second compound 0.0316 µM, first compound 0.1 µM): 81.6%
- viability, T/C (second compound 0.1 µM, first compound 0.000316 µM): 104%
- viability, T/C (second compound 0.1 µM, first compound 0.001 µM): 82.4%
- viability, T/C (second compound 0.1 µM, first compound 0.00316 µM): 82.4%
- viability, T/C (second compound 0.1 µM, first compound 0.01 µM): 80.8%
- viability, T/C (second compound 0.1 µM, first compound 0.0316 µM): 88.4%
- viability, T/C (second compound 0.1 µM, first compound 0.1 µM): 74.7%
- viability, T/C (second compound 0.316 µM, first compound 0.000316 µM): 68.3%
- viability, T/C (second compound 0.316 µM, first compound 0.001 µM): 65.2%
- viability, T/C (second compound 0.316 µM, first compound 0.00316 µM): 75.5%
- viability, T/C (second compound 0.316 µM, first compound 0.01 µM): 59.7%
- viability, T/C (second compound 0.316 µM, first compound 0.0316 µM): 60.6%
- viability, T/C (second compound 0.316 µM, first compound 0.1 µM): 68.4%
- viability, T/C (second compound 1 µM, first compound 0.000316 µM): 65.7%
- viability, T/C (second compound 1 µM, first compound 0.001 µM): 50.8%
- viability, T/C (second compound 1 µM, first compound 0.00316 µM): 61.6%
- viability, T/C (second compound 1 µM, first compound 0.01 µM): 62.7%
- viability, T/C (second compound 1 µM, first compound 0.0316 µM): 68.8%
- viability, T/C (second compound 1 µM, first compound 0.1 µM): 55.7%
